According to US20220249597A1, “MIF INHIBITORS AND METHODS OF USE THEREOF” (The Johns Hopkins University, priority 2016, published 2022):
{Biotin} = biotin label

Legend:
MIF [1] = target: T1, MIF (Homo sapiens, UniProt P14174); test: Electrophoretic mobility shift assay (EMSA) of MIF with biotin-labeled DNA substrates; assay type: binding; parameters: GST (N, cleaved yes); made in house; host or cells: Escherichia coli; conditions: 5′ biotin labeled single stranded substrates, 10 mM Mg2+
T1 sequence (P14174 2-115 limits assumed): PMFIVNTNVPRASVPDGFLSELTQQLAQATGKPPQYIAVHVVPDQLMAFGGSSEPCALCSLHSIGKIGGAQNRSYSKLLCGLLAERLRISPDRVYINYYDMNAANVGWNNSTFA
Procedure: EMSA assay was performed using LightShift Chemiluminescent EMSA kit (Thermo Scientific) following the manufactures instruction. Briefly, purified MIF protein (2 μM) was incubated with biotin-labeled DNA substrates (10 nM) in the binding buffer containing 10 mM MgCl2 for 30 min on ice. Then samples were separated on 6% retardation polyacrylamide followed by electrophoretic transfer to nylon membrane.
(§1) Human endoG (NM_004435), cyclophilin A (NM_021130), mouse AIF (NM_012019), human MIF (NM_002415) cDNA and their variants were subcloned into glutathione S-transferase (GST)-tagged pGex-6P-1 vector (GE Healthcare) by EcoRI and XhoI restriction sites and verified by sequencing. The protein was expressed and purified from Escherichia coli by glutathione Sepharose. The GST tag was subsequently proteolytically removed for the nuclease assay. MIF point mutants were constructed by polymerase chain reaction (PCR) and verified by sequencing. The purity of MIF proteins that were used in the nuclease assays was further confirmed by mass spectrometry. MIF proteins purified by FPLC were also used in the nuclease assays and no obvious difference was observed between FPLC MIF and non-FPLC MIF proteins. GST protein was used as a negative control in the nuclease assay.

MIF [2] = target: T1, MIF; test: MIF nuclease assay with small DNA substrates; assay type: biochemical; parameters: GST (N, cleaved yes); made in house; host or cells: Escherichia coli; key to Endo-Nuclease Activity / Exo-Nuclease Activity: Y:yes; N:no; conditions: for Endo-Nuclease Activity / Exo-Nuclease Activity: MIF on the listed DNA substrate; for MIF cleavage of DNA substrate: single or double stranded substrates, ds substrates MIF 1-4 μM
Excerpt: as §1

MIF [3] = target: T1, MIF; conditions: Mg2+ 10 mM with EDTA 50 mM or Ca2+ 2 mM with EDTA 25 mM
Procedure: (A) In vitro MIF nuclease assay using pcDNA as substrate. […] (C) Pulse-field gel electrophoresis assay of MNNG-induced DNA damage in MIF deficient HeLa cells and wild type HeLa cells treated with or without DPQ (30 μM) or ISO-1 (100 μM).
The reaction was terminated with loading buffer containing 10 mM EDTA and incubation on ice. […] Small DNA substrates were separated on 15% or 25% TBE-urea polyacrylamide (PAGE) gel or 20% TBE PAGE gel. Then gel was stained with 0.5 μg/ml Ethidium Bromide (EtBr) followed by electrophoretic transfer to nylon membrane. Then, Biotin-labeled DNA is further detected by chemiluminescence using Chemiluminescent Nucleic Acid Detection Module (Thermo Scientific).

HeLa cells = test: Pulse-field gel electrophoresis assay of MNNG-induced DNA damage in HeLa cells; assay type: cell-based, human; conditions: DPQ 30 μM; ISO-1 100 μM
Excerpt: FIGS. 2A-2D. FIG. 2. MIF is a novel nuclease that cleaves genomic DNA.

Molecule | MIF binding to ssDNA substrate (DNA/MIF complex formation) (MIF [1]) | Endo-Nuclease Activity (MIF [2]) | Exo-Nuclease Activity (MIF [2]) | Effect on MIF nuclease activity against human genomic DNA (MIF [3]) | Effect on MNNG induced DNA damage / DNA cleavage (HeLa cells) | MIF cleavage of DNA substrate (MIF [2])
3F1: 5′ biotin ssDNA MIF substrate, SEQ ID NO: 12 (DNA AAAAAAAAAACAAGTAGCTGGGATTACAGG; DNA, 5' {Biotin}, backbone and methylation of C not given here) | clearly binds | Y | Y |  |  | 
O=C(O)CN(CCN(CC(=O)O)CC(=O)O)CC(=O)O [EDTA] |  |  |  | blocks MIF's nuclease activity |  | 
COC(=O)CC1CC(c2ccc(O)cc2)=NO1 (stereo not drawn) [ISO-1] |  |  |  |  | fails to prevent MNNG induced DNA damage | 
BS2: 5′ biotin ssDNA MIF substrate, SEQ ID NO: 96 (DNA TGGGATTACAGGCGTGAGCCACCACGCCC; DNA, 5' {Biotin}, backbone and methylation of C not given here) |  | Y | Y |  |  | 
L3: 5′ biotin non-related sequence with stem loop like structure, SEQ ID NO: 13 (DNA ACCTAAATGCTAGAGCTCGCTGATCAGCCT; DNA, 5' {Biotin}, backbone and methylation of C not given here) | weakly binds | Y | Y |  |  | cleaved by MIF, but with less efficiency
LF: 5′ biotin ssDNA MIF substrate, SEQ ID NO: 7 (DNA AAAAAAACTCAGCCTCCCAAGTAGCTGGGA; DNA, 5' {Biotin}, backbone and methylation of C not given here) | no obvious effect on the DNA/MIF complex formation | N | N |  |  | 
PA^30: 5′ biotin-poly A, SEQ ID NO: 9 | fails to bind | N | Y |  |  | cleave
RF: 5′ biotin ssDNA MIF substrate, SEQ ID NO: 8 (DNA TCCCAAGTAGCTGGGATTACAGGAAAAAAA; DNA, 5' {Biotin}, backbone and methylation of C not given here) | reduces the DNA-MIF binding | Y | Y |  |  | 
SL: 5′ biotin ssDNA MIF substrate, SEQ ID NO: 6 (DNA CCTGTAATCCCAAGTAGCTGGGATTACAGG; DNA, 5' {Biotin}, backbone and methylation of C not given here) |  | N | N |  |  | 
m2: 5′ biotin ssDNA MIF substrate, SEQ ID NO: 79 (DNA CTCAGCCTCCAAAAAAAAAAGGATTACAGG; DNA, 5' {Biotin}, backbone and methylation of C not given here) |  | Y | Y |  |  | 
m3: 5′ biotin ssDNA MIF substrate, SEQ ID NO: 80 (DNA CTCAGCCTCCCAAGTAGCTGAAAAAAAAAA; DNA, 5' {Biotin}, backbone and methylation of C not given here) |  | Y | Y |  |  | 
m4: 5′ biotin ssDNA MIF substrate, SEQ ID NO: 81 (DNA CTCAGCCAAAAAAATAGCTGGGATTACAGG; DNA, 5' {Biotin}, backbone and methylation of C not given here) |  | Y | Y |  |  | 
m5: 5′ biotin ssDNA MIF substrate, SEQ ID NO: 82 (DNA CTCAGCCTCCCAAAAAAAAGGGATTACAGG; DNA, 5' {Biotin}, backbone and methylation of C not given here) |  | Y | Y |  |  | 
m6: 5′ biotin ssDNA MIF substrate, SEQ ID NO: 83 (DNA CTCAAAAAAACAAGTAGCTGGGATTACAGG; DNA, 5' {Biotin}, backbone and methylation of C not given here) |  | Y | Y |  |  | 
m7: 5′ biotin ssDNA MIF substrate, SEQ ID NO: 84 (DNA AAAAGCCTCCCAAGTAGCTGGGATTACAGG; DNA, 5' {Biotin}, backbone and methylation of C not given here) |  | Y | Y |  |  | 
m8: 5′ biotin ssDNA MIF substrate, SEQ ID NO: 85 (DNA CTCAAAATCCCAAAAAAAAGGGATTACAGG; DNA, 5' {Biotin}, backbone and methylation of C not given here) |  | Y | Y |  |  | 
m9: 5′ biotin ssDNA MIF substrate, SEQ ID NO: 86 (DNA CAAGTAGCTGCTCAGCCTCCGGATTACAGG; DNA, 5' {Biotin}, backbone and methylation of C not given here) |  | Y | Y |  |  | 
m10: 5′ biotin ssDNA MIF substrate, SEQ ID NO: 87 (DNA CTCAGCCTCCGGATTACAGGCAAGTAGCTG; DNA, 5' {Biotin}, backbone and methylation of C not given here) |  | Y | Y |  |  | 
m11: 5′ biotin ssDNA MIF substrate, SEQ ID NO: 88 (DNA CTCAGCCTCCCAAGTAAAAGGGATTACAGG; DNA, 5' {Biotin}, backbone and methylation of C not given here) |  | Y | Y |  |  | 
m12: 5′ biotin ssDNA MIF substrate, SEQ ID NO: 89 (DNA CTCAGCCTCCCAAGTAAATGGGATTACAGG; DNA, 5' {Biotin}, backbone and methylation of C not given here) |  | Y | Y |  |  | 
m14: 5′ biotin ssDNA MIF substrate, SEQ ID NO: 90 (DNA CTCAGCCTCCCAAGTAAACGGGATTACAGG; DNA, 5' {Biotin}, backbone and methylation of C not given here) |  | Y | Y |  |  | 
m15: 5′ biotin ssDNA MIF substrate, SEQ ID NO: 91 (DNA CTCAGCCTCCCAAGTAGCAGGGATTACAGG; DNA, 5' {Biotin}, backbone and methylation of C not given here) |  | Y | Y |  |  | 
m16: 5′ biotin ssDNA MIF substrate, SEQ ID NO: 92 (DNA CTCAGCCTCCCTTGTAGCTGGGATTACAGG; DNA, 5' {Biotin}, backbone and methylation of C not given here) |  | Y | Y |  |  | 
m17: 5′ biotin ssDNA MIF substrate, SEQ ID NO: 93 (DNA CTCAAAATCCCAAGTAGCTGGGATTACAGG; DNA, 5' {Biotin}, backbone and methylation of C not given here) |  | Y | Y |  |  | 
m18: 5′ biotin ssDNA MIF substrate, SEQ ID NO: 94 (DNA CTCAATTTCCCAAGTAGCTGGGATTACAGG; DNA, 5' {Biotin}, backbone and methylation of C not given here) |  | Y | Y |  |  | 
m20: 5′ biotin ssDNA MIF substrate, SEQ ID NO: 95 (DNA AAAAATCTCAGCCTCCCAAGTAGCTGGGAT; DNA, 5' {Biotin}, backbone and methylation of C not given here) |  | Y | Y |  |  | 
